# Assay: Inhibition of yeast alpha-glucosidase by colorimetric method
# Set-up: species or system Saccharomyces cerevisiae
row,IC50 [µM],SMILES
1,0.098,Oc1cc(COCc2cc(O)c(O)c(Br)c2Br)c(Br)c(Br)c1O
2,89,OCc1cc(O)c(O)c(Br)c1Br [LANOSOL]
3,25,OCc1cc(Br)c(O)c(Oc2c(CO)cc(Br)c(O)c2O)c1Br
